EP2924040A1, “2-Amino-1-(o-tolyl)pyrrolo[3,2-b]quinoxaline-3-carboxamide derivates” (Universität Zürich, priority 2014, dated 2015)

Columns and labels:
EphA3 [1] = biological target: T1, EphA3 (Homo sapiens, UniProt P29320); test: Differential Scanning Fluorimetry; format: binding; settings: 2 µmol/L EphA3, test compound 20 µmol/L, pH 8.0; read-out: difference in the melting temperature Tm (Δ Tm)
T1 sequence (P29320 21-983): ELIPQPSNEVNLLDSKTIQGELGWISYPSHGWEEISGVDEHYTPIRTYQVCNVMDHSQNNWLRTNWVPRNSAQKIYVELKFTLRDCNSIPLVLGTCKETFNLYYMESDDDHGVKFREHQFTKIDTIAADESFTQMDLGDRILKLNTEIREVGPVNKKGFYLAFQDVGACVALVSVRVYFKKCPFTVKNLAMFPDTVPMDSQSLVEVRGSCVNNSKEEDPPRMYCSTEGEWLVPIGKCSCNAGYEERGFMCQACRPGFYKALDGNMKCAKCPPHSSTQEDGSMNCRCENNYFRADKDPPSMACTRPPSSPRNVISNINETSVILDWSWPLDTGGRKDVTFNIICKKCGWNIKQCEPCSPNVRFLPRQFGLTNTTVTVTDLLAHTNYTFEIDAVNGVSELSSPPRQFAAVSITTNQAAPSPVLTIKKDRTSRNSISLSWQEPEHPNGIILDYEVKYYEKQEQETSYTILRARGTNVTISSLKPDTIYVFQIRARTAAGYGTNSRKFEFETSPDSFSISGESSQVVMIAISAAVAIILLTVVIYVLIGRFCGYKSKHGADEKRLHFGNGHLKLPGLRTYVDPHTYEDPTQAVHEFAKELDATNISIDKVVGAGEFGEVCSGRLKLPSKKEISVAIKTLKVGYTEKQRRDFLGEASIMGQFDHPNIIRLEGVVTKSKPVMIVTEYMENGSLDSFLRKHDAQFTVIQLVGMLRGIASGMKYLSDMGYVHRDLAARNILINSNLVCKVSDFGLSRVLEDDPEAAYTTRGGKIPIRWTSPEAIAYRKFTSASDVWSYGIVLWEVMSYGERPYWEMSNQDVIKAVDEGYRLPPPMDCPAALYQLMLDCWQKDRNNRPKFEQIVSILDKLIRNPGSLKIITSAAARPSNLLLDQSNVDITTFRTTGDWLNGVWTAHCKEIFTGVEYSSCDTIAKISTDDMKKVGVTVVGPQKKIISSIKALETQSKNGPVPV
Protocol: To a 2 µmol/L solution of EphA3 in 10mM Tris HCl buffer (pH 8.0) containing 100mM NaCl, 5X SYPRO Orange fluorescent dye together with the test compounds prediluted in DMSO at a concentration of 20 µmol/L (1.4% final DMSO concentration). A final volume of 40 µL was added per well in a 96-well plate and incubated at room temperature for 1 h. The plates were centrifuged for 3 min at 450 rcf. The temperature gradient was performed in the range of 25 to 75 °C (50 acquisitions per degree at a ramp rate of […]) using a LightCycler 480 Real-Time PCR System. The detection of protein unfolding was performed with an excitation wavelength of 488 nm and an emission of 580 nm. All measurements were performed in triplicate. Compound 2 comprises a difference in the melting temperature Tm (corresponding to the temperature at which the concentrations of folded and unfolded protein are equal) with respect to EphA3 of 11.44 °C (Δ Tm), whereas prior art compounds 17 and 87 presented differences in the melting temperature Tm with respect to EphA3 of 1.6 and 0.7 °C, respectively.

K562 = test: Cell culture and GI50 determination (resazurin); format: cell-based; settings: Homo sapiens, K562, 48 hour incubation
Protocol: MDA-MB-231 (breast cancer) and KM12 (colon cancer) cells obtained from the UZH Cancer Institute, HOP-92 (lung cancer) cells purchased from the National Cancer Institute (NCl) and A498 (kidney cancer) cells obtained from Prof. Krek (Institute of Cell Biology, ETH Zurich) were cultured in Dulbecco's modified Eagle's medium (DMEM) supplemented with 10% (v/v) fetal bovine serum. K562 leukemia cells obtained from Dr. Silvio Hemmi (Institute of Molecular Life Sciences, UZH) were cultured using RPMI medium supplemented with 5% (v/v) fetal bovine serum. All the media was additionally supplemented with 100 units/mL of penicillin, 100µg/mL of streptomycin, 4.5 g/L glucose, 0.11g/L sodium pyrubate and 2mM glutamine and the cells were grown at 37 °C in 5% CO2 atmosphere with 80% relative humidity.
In the case of K-562 leukemia cells, these were seeded at a density of 20,000 cells per well in 100µL of RMPI media in a 96 well microtiter plates. […] After 48 hour incubation, cell viability was assessed by measuring the ability of the cells to process resazurin. Resazurin was added to every well to obtain a final concentration of 86nmol/L, and after 3 hours, the fluorescence was quantified using a fluorescence microplate reader (Biotek, FLx800™) at the respective excitation and emission wavelength of 560 and 590 nm as described above. […]

EphA3 [2] = biological target: T1, EphA3; test: Surface Plasmon Resonance (SPR) determination of binding and unbinding kinetics; settings: immobilized EphA3, 25 °C
Protocol: The affinity of compound 2 towards EphA3 was determined using Surface Plasmon Resonance measurements on a ProteOn XPR36 (Bio-Rad Laboratories, AG). EphA3 was immobilized on a GLH chip (Bio-Rad Laboratories AG) by standard amine coupling procedures achieving a RU of 4000-6000 and equilibrated with steriled-filtered buffer (10mM HEPES, 150mM NaCl, 3mM EDTA, 0.005% Tween 20 pH 8.0) with a flow rate of 60µL/min. Association of compound 2 was performed at 25 °C using serial dilutions of the inhibitors in duplicates for 400s, whereas dissociation of the inhibitors from the chip was monitored for 36,000 seconds. Data were normalized using interspot referencing and subtraction of a separate analyte channel run with buffer and BSA. All sensograms were fitted using a 1:1 Langmuir model provided by the ProteOn Manager Software (Bio-Rad Laboratories AG), and the association (kon) and dissociation ([…]) rate constants were used to determine the equilibrium dissociation constants (KD).

Q: How did the ΔTm at 20 µM (EphA3 [1]) turn out when `Cc1ccc(O)cc1-n1c(N)c(C(N)=O)c2nc3ccccc3nc21` [Compound 2, 2-Amino-1-(5-hydroxy-2-methylphenyl)-1H-pyrrolo[2,3-b]quinoxaline-3-carboxamide] was run?
A: 11.4 °C

Q: What about the GI50 (K562) of the same compound?
A: 1050 nM

Q: And the Kd (EphA3 [2]; 1:1 Langmuir model, read-out: dissociation constant (KD))?
A: 6 nM

Q: And the residence time (EphA3 [2]; reciprocal value of koff, read-out: τoff (residence time) (converted))?
A: 11 min
